Reference: patent US9458153B2, “Dihydroquinolizinones for the treatment and prophylaxis of hepatitis B virus infection” (Hoffmann-La Roche Inc., priority 2014, dated 2016)
pIC50: −log10 of the molar value.

Tested on: HBsAg
Assay: HBsAg assay (chemiluminescence immunoassay of secreted HBsAg in HepG2.2.15 culture supernatant)
Format: cell-based, HBV
Settings: HepG2.2.15 cells, CLIA kit
Procedure, shortened: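 IC50 came from dose-response curves of HBsAg in culture supernatant, measured semi-quantitatively by chemiluminescent immunoassay. The HBV-producing HepG2.2.15 line was dosed in duplicate with a three-fold compound dilution series, with DMSO at 1% final and DMSO alone as the no-drug control.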

[1] = Hepatitis B virus, HepG2.2.15, HBsAg secretion reduced by 50% vs no drug control
[2] = HBsAg secretion reduced by 50% vs no drug control

Compound | pIC50 [1] | pIC50 [2]
CCC1Cc2cc(OCCn3ccnc3)c(OC)cc2-c2cc(=O)c(C(=O)O)cn21 (stereo not drawn) [Example 26, 6-ethyl-9-(2-imidazol-1-ylethoxy)-10-methoxy-2-oxo-6,7-dihydrobenzo[a]quinolizine-3-carboxylic acid] | 5.78 | –
CCC1Cc2cc(OCCOC)c(OC)cc2-c2cc(=O)c(C(=O)O)cn21 (stereo not drawn) [Example 27, 6-ethyl-10-methoxy-9-(2-methoxyethoxy)-2-oxo-6,7-dihydrobenzo[a]quinolizine-3-carboxylic acid] | – | 7.25
CCOc1cc2c(cc1OC)-c1cc(=O)c(C(=O)O)cn1C(CC)C2 (stereo not drawn) [Example 36, 9-ethoxy-6-ethyl-10-methoxy-2-oxo-6,7-dihydrobenzo[a]quinolizine-3-carboxylic acid] | – | 7.28
CCC1Cc2cc(OCCCOC)c(OC)cc2-c2cc(=O)c(C(=O)O)cn21 (stereo not drawn) [Example 39, 6-ethyl-10-methoxy-9-(3-methoxypropoxy)-2-oxo-6,7-dihydrobenzo[a]quinolizine-3-carboxylic acid] | – | 7.80
CCOCCOc1cc2c(cc1OC)-c1cc(=O)c(C(=O)O)cn1C(CC)C2 (stereo not drawn) [Example 42, 9-(2-ethoxyethoxy)-6-ethyl-10-methoxy-2-oxo-6,7-dihydrobenzo[a]quinolizine-3-carboxylic acid] | – | 7.24
CCC1Cc2cc(OCC(F)F)c(OC)cc2-c2cc(=O)c(C(=O)O)cn21 (stereo not drawn) [Example 45, 9-(2,2-difluoroethoxy)-6-ethyl-10-methoxy-2-oxo-6,7-dihydrobenzo[a]quinolizine-3-carboxylic acid] | – | 6.98
CCC1Cc2cc(OCC3CCOCC3)c(OC)cc2-c2cc(=O)c(C(=O)O)cn21 (stereo not drawn) [Example 48, 6-ethyl-10-methoxy-2-oxo-9-(tetrahydropyran-4-ylmethoxy)-6,7-dihydrobenzo[a]quinolizine-3-carboxylic acid] | – | 7.62
CCC1Cc2cc(OCCN3CCCC3)c(OC)cc2-c2cc(=O)c(C(=O)O)cn21 (stereo not drawn) [Example 51, 6-ethyl-10-methoxy-2-oxo-9-(2-pyrrolidin-1-ylethoxy)-6,7-dihydrobenzo[a]quinolizine-3-carboxylic acid] | 5.41 | –
CCC1Cc2cc(OCCCC#N)c(OC)cc2-c2cc(=O)c(C(=O)O)cn21 (stereo not drawn) [Example 52, 9-(3-cyanopropoxy)-6-ethyl-10-methoxy-2-oxo-6,7-dihydrobenzo[a]quinolizine-3-carboxylic acid] | 6.77 | –
CCC1Cc2cc(OCCS(C)(=O)=O)c(OC)cc2-c2cc(=O)c(C(=O)O)cn21 (stereo not drawn) [Example 53, 6-ethyl-10-methoxy-9-(2-methylsulfonylethoxy)-2-oxo-6,7-dihydrobenzo[a]quinolizine-3-carboxylic acid] | 5.81 | –
CCC1Cc2cc(OCCN3CCCC3=O)c(OC)cc2-c2cc(=O)c(C(=O)O)cn21 (stereo not drawn) [Example 54, 6-ethyl-10-methoxy-2-oxo-9-[2-(2-oxopyrrolidin-1-yl)ethoxy]-6,7-dihydrobenzo[a]quinolizine-3-carboxylic acid] | 6.89 | –
CC[C@@H]1Cc2cc(OCCN3CCCC3=O)c(OC)cc2-c2cc(=O)c(C(=O)O)cn21 [Example 55, (+)-6-ethyl-10-methoxy-2-oxo-9-[2-(2-oxopyrrolidin-1-yl)ethoxy]-6,7-dihydrobenzo[a]quinolizine-3-carboxylic acid] | 6.14 | –
CCC1Cc2cc(OCCNS(C)(=O)=O)c(OC)cc2-c2cc(=O)c(C(=O)O)cn21 (stereo not drawn) [Example 56, 6-ethyl-9-[2-(methanesulfonamido)ethoxy]-10-methoxy-2-oxo-6,7-dihydrobenzo[a]quinolizine-3-carboxylic acid] | 5.48 | –
CCC1Cc2cc(OCC3(C#N)CC3)c(OC)cc2-c2cc(=O)c(C(=O)O)cn21 (stereo not drawn) [Example 57, 9-[(1-cyanocyclopropyl)methoxy]-6-ethyl-10-methoxy-2-oxo-6,7-dihydrobenzo[a]quinolizine-3-carboxylic acid] | 6.77 | –
CC1Cc2cccc(Br)c2-c2cc(=O)c(C(=O)O)cn21 (stereo not drawn) [Example 60, 11-bromo-6-methyl-2-oxo-6,7-dihydrobenzo[a]quinolizine-3-carboxylic acid] | 5.91 | –
